Results: paper doi:10.1101/2025.11.21.689824v1, “Fluorescent Biosensor-Guided Engineering of Enzyme Cascades for Electrochemical Applications” (biorxiv, 2025)
Like-named read-outs stand apart in the source and are kept apart here. One block for each molecule: values may come before it.

Columns and labels:
[1] = system: Single-chain T. thermophilus Fumarase #1 V0 MDH Linkage (T1-V0); settings: MDH component; 50 mM NAD+, potassium phosphate buffer; not told whether the fumarase part was inactivated
[2] = system: Single-chain T. thermophilus Fumarase #1 H23 MDH Linkage (T1-H23); settings: MDH component; 50 mM NAD+, potassium phosphate buffer; not told whether the fumarase part was inactivated
[3] = system: H23 fusion (MDH-scaffolded KKRQKKKRK linker-fumarase); settings: MDH component, fumarase part inactivated; 50 mM NAD+, potassium phosphate buffer, 1 nM enzyme
[4] = system: V0 fusion (MDH-G4SG4S-fumarase); settings: MDH component, fumarase part inactivated; 50 mM NAD+, potassium phosphate buffer, 1 nM enzyme
[5] = target: V0 fusion (MDH-G4SG4S-fumarase); test: inhibition of fumarate to NADH cascade, Lineweaver-Burk; format: biochemical, Escherichia coli; settings: 500 µM NAD+, fumarate 0.25-8 mM, 100 mM potassium phosphate, 0.5 nM enzyme; competitive at the MDH part; cascade read-out; read-out: apparent Ki
Protocol: inhibition of fumarate to NADH cascade, Lineweaver-Burk on V0 fusion (MDH-G4SG4S-fumarase) | the apparent inhibition constant (Ki) of citrate on the enzymatic cascade was determined

[6] = target: H23 fusion (MDH-scaffolded KKRQKKKRK linker-fumarase); test: as above; format: biochemical, Escherichia coli; settings: 500 µM NAD+, fumarate 0.25-8 mM, 100 mM potassium phosphate, 0.5 nM enzyme; competitive at the MDH part; cascade read-out; read-out: apparent Ki
[7] = system: Single-chain T. thermophilus Fumarase #1 H23 MDH Linkage (T1-H23); settings: fumarase component; potassium phosphate buffer, 1 µM enzyme
[8] = target: T1, WT Fumarase (FumC, class II) (Escherichia coli, UniProt P05042); test: UV absorbance of fumarate, Lineweaver-Burk; format: biochemical; settings: potassium phosphate buffer, 20 nM enzyme; free enzyme
T1 construct: full length, N-terminal leader […]; (His tag, T7 gene 10 leader, Xpress) in pBAD, expressed in E. coli XL1-Blue; homotetramer
T1 sequence (P05042 1-467): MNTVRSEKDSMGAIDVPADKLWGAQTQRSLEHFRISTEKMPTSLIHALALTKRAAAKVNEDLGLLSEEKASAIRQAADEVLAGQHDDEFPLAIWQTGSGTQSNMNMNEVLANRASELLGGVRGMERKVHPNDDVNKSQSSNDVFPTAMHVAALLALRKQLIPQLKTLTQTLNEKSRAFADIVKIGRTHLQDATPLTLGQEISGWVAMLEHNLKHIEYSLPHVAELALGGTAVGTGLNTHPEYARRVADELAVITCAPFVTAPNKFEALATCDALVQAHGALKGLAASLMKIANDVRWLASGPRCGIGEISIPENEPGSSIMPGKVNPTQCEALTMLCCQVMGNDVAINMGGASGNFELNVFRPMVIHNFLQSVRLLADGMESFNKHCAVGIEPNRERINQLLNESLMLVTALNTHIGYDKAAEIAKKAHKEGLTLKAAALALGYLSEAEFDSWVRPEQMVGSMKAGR

[9] = system: Single-chain T. thermophilus Fumarase #1 V0 MDH Linkage (T1-V0); settings: fumarase component; potassium phosphate buffer, 1 µM enzyme
[10] = system: V0 fusion (MDH-G4SG4S-fumarase); settings: fumarase component; potassium phosphate buffer, 20 nM enzyme; free enzyme
[11] = system: T2, Single-chain T. thermophilus Fumarase #1; settings: potassium phosphate buffer, 1 µM enzyme
T2 construct: gene fumC

[12] = system: T3, Single-chain E. coli Fumarase #2; settings: potassium phosphate buffer, 1 µM enzyme
T3 construct: gene fumC

[13] = system: H23 fusion (MDH-scaffolded KKRQKKKRK linker-fumarase); settings: fumarase component; potassium phosphate buffer, 20 nM enzyme; free enzyme

Km [1]: 1050 ± 390 µM
Km [2]: 1150 ± 370 µM
Km [3]: 1220 ± 60 µM
Km [4]: 1210 ± 70 µM
SMILES: O=C(O)C[C@H](O)C(=O)O [malate]

SMILES: O=C(O)CC(O)(CC(=O)O)C(=O)O [citrate]
Ki [5]: 1.65 ± 0.15 mM
Ki [6]: 8.57 ± 0.71 mM

SMILES: O=C(O)/C=C/C(=O)O [fumarate]
Km [7]: 972 ± 62 µM
Km [8]: 443 ± 101 µM
Km [9]: 969 ± 61 µM
Km [10]: 759 ± 51 µM
Km [11]: 809 ± 59 µM
Km [12]: 758 ± 192 µM
Km [13]: 934 ± 66 µM
